This passage reports IC50 results from patent publication US11780845B2 (Relay Therapeutics, Inc., priority 2019, dated 2023).

One assay deals with FGFR2 (Homo sapiens (Human), UniProt P21802). Briefly: Biochemical FGFR2 Caliper assay.
The next assay concerns SNU-16. Briefly: Cell SNU-16 assay. The note with it: Homo sapiens, SNU-16, SNU-16 cells. Format: cell-based.

Sequence of FGFR2 (P21802 22-821): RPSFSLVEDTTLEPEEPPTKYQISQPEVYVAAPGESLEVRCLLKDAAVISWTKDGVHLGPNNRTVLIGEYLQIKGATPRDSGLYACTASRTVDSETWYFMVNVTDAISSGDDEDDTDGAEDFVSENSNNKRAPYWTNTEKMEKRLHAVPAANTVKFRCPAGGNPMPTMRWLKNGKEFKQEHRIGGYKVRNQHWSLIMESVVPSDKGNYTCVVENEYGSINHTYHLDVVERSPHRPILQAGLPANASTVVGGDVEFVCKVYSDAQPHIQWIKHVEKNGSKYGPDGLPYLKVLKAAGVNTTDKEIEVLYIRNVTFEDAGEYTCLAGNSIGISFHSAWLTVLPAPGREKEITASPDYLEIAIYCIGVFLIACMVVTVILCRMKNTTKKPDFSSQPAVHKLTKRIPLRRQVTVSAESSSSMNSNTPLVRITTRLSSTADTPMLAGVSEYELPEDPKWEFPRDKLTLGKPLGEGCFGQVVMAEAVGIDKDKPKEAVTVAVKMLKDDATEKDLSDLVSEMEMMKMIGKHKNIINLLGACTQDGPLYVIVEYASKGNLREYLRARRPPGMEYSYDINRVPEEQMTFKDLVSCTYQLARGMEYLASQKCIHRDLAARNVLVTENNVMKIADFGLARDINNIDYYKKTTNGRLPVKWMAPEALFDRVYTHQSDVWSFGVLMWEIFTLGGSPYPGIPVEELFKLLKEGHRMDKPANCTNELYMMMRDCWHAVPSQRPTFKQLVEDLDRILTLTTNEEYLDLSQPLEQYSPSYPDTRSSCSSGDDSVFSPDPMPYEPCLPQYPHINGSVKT

What is called IC50 is the concentration at which inhibition is half-maximal. A lower IC50 goes with higher potency. For the compound `C=C(C)C(=O)Nc1ccc(-c2c(-c3cnn(-c4ccc(F)cc4)c3)c3c(N)ncnc3n2C)cc1` [Example 1285], the values for the half-maximal inhibitory concentration (IC50) at FGFR2 and in the assay on SNU-16 were 250 to 1000 nM and 1000 to 100000 nM, respectively.
The corresponding values for `C=C(C)C(=O)Nc1ccc(-c2c(-c3ccc4cnccc4c3)c3c(N)ncnc3n2C)cc1` [Example 1286] are 250 to 1000 nM and 250 to 1000 nM.
For `C=C(C)C(=O)Nc1ccc(-c2c(C3=CCC(C#N)CC3)c3c(N)ncnc3n2C)cc1` (stereo not shown) [Example 1287], the IC50 against FGFR2 and in the assay on SNU-16 was 1000 to 100000 nM in each case.
For the compound `C=C(C)C(=O)Nc1ccc(-c2c(-c3ccc4occc4c3)c3c(N)ncnc3n2C)cc1` [Example 1288], the IC50 at FGFR2 and in the assay on SNU-16 was 1000 to 100000 nM throughout.
Regarding `C=C(C)C(=O)Nc1ccc(-c2c(-c3ccc4c(c3)COCC4)c3c(N)ncnc3n2C)cc1` [Example 1289], the IC50 on FGFR2 and in the assay on SNU-16 was 1000 to 100000 nM throughout.
As for `C=C(C)C(=O)Nc1ccc(-c2c(-c3ccc4[nH]nc(C)c4c3)c3c(N)ncnc3n2C)cc1` [Example 1290], the IC50 on FGFR2 and in the assay with SNU-16 was 1000 to 100000 nM in each case.
In the case of `C=C(C)C(=O)Nc1ccc(-c2c(-c3cnn(-c4cccc(C(F)(F)F)c4)c3)c3c(N)ncnc3n2C)cc1` [Example 1291], the 50% inhibitory concentration (IC50) against FGFR2 and in the assay with SNU-16 was 1000 to 100000 nM in each case.
Regarding `C=C(C)C(=O)Nc1ccc(-c2c(-c3ccc4c(c3)CCOC4)c3c(N)ncnc3n2C)cc1` [Example 1292], the 50% inhibitory concentration (IC50) against FGFR2 and with SNU-16 was 1000 to 100000 nM in each case.
`C=C(C)C(=O)Nc1ccc(-c2c(-c3cnc(-c4ccccc4)s3)c3c(N)ncnc3n2C)cc1` [Example 1293]: the results for the IC50 against FGFR2 and in the assay on SNU-16 were 100 to 250 nM and 250 to 1000 nM, respectively.
In the same order, the values of `C=C(C)C(=O)Nc1ccc(-c2c(-c3ccc4nc[nH]c4c3)c3c(N)ncnc3n2C)cc1` [Example 1294] are 250 to 1000 nM and 1000 to 100000 nM.
In the same order, the values of `C=C(C)C(=O)Nc1ccc(-c2c(-c3ccc(N)nc3)c3c(N)ncnc3n2C)cc1` [Example 1295] are 1000 to 100000 nM and 1000 to 100000 nM.
Regarding `C=C(C)C(=O)Nc1ccc(-c2c(-c3ccc4[nH]ccc4c3)c3c(N)ncnc3n2C)cc1` [Example 1296], the values for the IC50 at FGFR2 and in the assay on SNU-16 were 100 to 250 nM and 250 to 1000 nM, respectively.
Turning to `C=C(C)C(=O)Nc1ccc(-c2c(-c3ccc4cc[nH]c4c3)c3c(N)ncnc3n2C)cc1` [Example 1297], the half-maximal inhibitory concentration (IC50) at FGFR2 and in the assay with SNU-16 was 250 to 1000 nM throughout.
On to `C=C(C)C(=O)Nc1ccc(-c2c(-c3cccc(O)c3)c3c(N)ncnc3n2C)cc1` [Example 1298], for which the figures for the half-maximal inhibitory concentration (IC50) at FGFR2 and in the assay on SNU-16 were 250 to 1000 nM and 1000 to 100000 nM, respectively.
In the same order, the values of `C=C(C)C(=O)Nc1ccc(-c2c(-c3cccc(N)c3)c3c(N)ncnc3n2C)cc1` [Example 1299] are 1000 to 100000 nM and 1000 to 100000 nM.
Consider `C=C(C)C(=O)Nc1ccc(-c2c(-c3ccc(-c4cc(=O)[nH][nH]4)cc3)c3c(N)ncnc3n2C)cc1` [Example 1300], for which the IC50 on FGFR2 and in the assay on SNU-16 was 1000 to 100000 nM each time.
In the case of `C=C(C)C(=O)Nc1ccc(-c2c(-c3ccc4cn[nH]c4c3)c3c(N)ncnc3n2C)cc1` [Example 1301], the IC50 at FGFR2 and with SNU-16 was 1000 to 100000 nM throughout.
As for `C=C(C)C(=O)Nc1ccc(-c2c(-c3ccc4nn[nH]c4c3)c3c(N)ncnc3n2C)cc1` [Example 1302], the IC50 on FGFR2 and with SNU-16 was 1000 to 100000 nM each time.
In the case of `C=C(C)C(=O)Nc1ccc(-c2c(-c3ccc(NC(=O)OCC)nc3)c3c(N)ncnc3n2C)cc1` [Example 1303], the half-maximal inhibitory concentration (IC50) at FGFR2 and in the assay on SNU-16 was 1000 to 100000 nM in each case.
With `C#Cc1ccc(-c2c(C3=CC[C@H](C(=O)N4CCCC45COC5)CC3)c3c(N)ncnc3n2C)c(C)n1` [Example 1304], the IC50 against FGFR2 and in the assay with SNU-16 was 250 to 1000 nM each time.
`C#Cc1ncc(-c2c(-c3ccc(C(=O)N(C)CC(C)C)cc3)c3c(N)ncnc3n2C)c(C)c1F` [Example 1305]: the IC50 was below 100 nM against FGFR2 and at most 100 nM with SNU-16.
In the same order, the values of `C#Cc1ncc(-c2c(-c3ccc(C(=O)NCC(C)C)cc3)c3c(N)ncnc3n2C)c(C)c1F` [Example 1306] are below 100 nM and at most 100 nM.
The corresponding values for `CNC(=O)/C(C#N)=C/c1ccc(-c2c(-c3ccc(Oc4nccc(C)n4)c(F)c3)c3c(N)ncnc3n2C)c(C)c1` [Example 1309] are below 100 nM and 250 to 1000 nM.
In the same order, the values of `C#Cc1ncc(-c2c(-c3ccc(Oc4nccc(C)n4)cc3F)c3c(N)ncnc3n2C)c(C)c1F` [Example 1310] are below 100 nM and at most 100 nM.
`C=C1CCc2cc(-c3c(-c4ccc(Oc5nccc(C)n5)cc4)c4c(N)ncnc4n3C)ccc2C1=O` [Example 1311]: the IC50 was below 100 nM against FGFR2 and 250 to 1000 nM in the assay with SNU-16.
The corresponding values for `CC#Cc1cnc(-c2c(-c3ccc(Oc4nccc(C)n4)c(F)c3)c3c(N)ncnc3n2C)c(C)n1` [Example 1312] are 250 to 1000 nM and 100 to 250 nM.
With `C#Cc1ncc(-c2c(-c3ccc(Oc4nccc(C)n4)c(F)c3)c3c(N)ncnc3n2C)c(C)c1F` [Example 1313], the IC50 is below 100 nM against FGFR2 and at most 100 nM in the assay on SNU-16.
In the same order, the values of `C#Cc1cnc(-c2c(-c3ccc(Oc4nccc(C)n4)c(F)c3)c3c(N)ncnc3n2C)c(CN(C)C)c1` [Example 1314] are 100 to 250 nM and at most 100 nM.
Turning to `C=CC(=O)Nc1ccc(-c2c(-c3ccc(-n4cc(C)cn4)nc3)c3c(C)ncnc3n2C)cc1` [Example 1315], the half-maximal inhibitory concentration (IC50) lay within 100 to 250 nM against FGFR2 and 250 to 1000 nM in the assay with SNU-16.
In the same order, the values of `C=C(C)C(=O)Nc1ccc(-c2c(-c3ccc(-n4cc(CC)cn4)nc3)c3c(N)ncnc3n2C)cc1` [Example 1316] are 250 to 1000 nM and 250 to 1000 nM.
In the same order, the values of `C#Cc1cc(C)c(-c2c(C3=CC[C@H](C(=O)N4CCC[C@H]4C)CC3)c3c(N)ncnc3n2C)c(F)n1` [Example 1319] are below 100 nM and at most 100 nM.
The corresponding values for `C#Cc1nc2cc(-c3c(C4=CC[C@@H](C(=O)N5CCC[C@H]5COC)CC4)c4c(N)ncnc4n3C)ccc2[nH]1` [Example 1320] are below 100 nM and 250 to 1000 nM.
For `C#Cc1cc(C)c(-c2cn3ncnc(N)c3c2-c2ccc(Oc3nccc(C)n3)c(F)c2)cn1` [Example 1321], the IC50 was below 100 nM at FGFR2 and at most 100 nM in the assay on SNU-16.
In the same order, the values of `C#Cc1cc(C)c(-c2c(-c3ccc(Oc4nccc(C)n4)c(F)c3)c3c(N)ncnc3n2C)c(F)n1` [Example 1322] are below 100 nM and at most 100 nM.
The corresponding values for `C=C(C)C(=O)Nc1ccc(-c2c(-c3ccc4c(C(=O)NC5CC5)n[nH]c4c3)c3c(N)ncnc3n2C)cc1` [Example 1323] are 1000 to 100000 nM and 1000 to 100000 nM.
For `C=C(C)C(=O)Nc1ccc(-c2c(-c3ccc4c(C(=O)NCC5CC5)n[nH]c4c3)c3c(N)ncnc3n2C)cc1` [Example 1324], the IC50 on FGFR2 and in the assay on SNU-16 was 1000 to 100000 nM in each case.
In the case of `C#Cc1cc(C)c(-c2c(C3=CC[C@H](C(=O)N4CCCC45CC5)CC3)c3c(N)ncnc3n2C)cn1` [Example 1325], the half-maximal inhibitory concentration (IC50) on FGFR2 and with SNU-16 was 250 to 1000 nM throughout.
For `C#Cc1cc(C)c(-c2c(-c3ccc(Oc4nccc(C)n4)cn3)c3c(N)ncnc3n2C)cn1` [Example 1327], the IC50 is below 100 nM at FGFR2 and at most 100 nM in the assay on SNU-16.
